Assay results: patent US11802113B2, “Substituted pyrazole compounds, compositions containing same, and use thereof” (Shenzhen TargetRx, Inc., priority 2019, dated 2023)

How the values were obtained:
[1] = Metabolic stability evaluation, human liver microsome; assay type: in vitro ADME; settings: liver microsomes, pH 7.4, human liver microsome 0.5 mg/mL, compound 1 μM, NADPH, 37° C.; for microsomal CLint at 1 μM: read-out: HLM CL; for half-life at 1 μM: read-out: HLM T1/2
Procedure: (§1) (4) Metabolic Stability Evaluation
(§2) Microsome experiment: human liver microsome: 0.5 mg/mL, Xenotech; rat liver microsome: 0.5 mg/mL, Xenotech; coenzyme (NADPH/NADH): 1 mM, Sigma Life Science; magnesium chloride: 5 mM, 100 mM phosphate buffer (pH 7.4).
(§3) Preparation of stock solution: a certain amount of the example compound powder and control compound powder were accurately weighed, and respectively dissolved to 5 mM with DMSO.
(§4) Preparation of phosphate buffer (100 mM, pH7.4): 150 mL of 0.5M potassium dihydrogen phosphate and 700 mL of 0.5M dipotassium hydrogen phosphate prepared beforehand were mixed, with pH of the mixture adjusted to 7.4 with 0.5M dipotassium hydrogen phosphate solution. Before use, the mixture was diluted by 5 folds with ultrapure water and magnesium chloride was added to obtain the phosphate buffer (100 mM), which contains 100 mM potassium phosphate, 3.3 mM magnesium chloride, and has pH 7.4.
(§5) NADPH regeneration system solution (containing 6.5 mM NADP, 16.5 mM G-6-P, 3 U/mL G-6-P D, 3.3 mM magnesium chloride) was prepared, and placed on wet ice before use.
(§6) Preparation of stop solution: a solution of 50 ng/mL propranolol hydrochloride and 200 ng/mL tolbutamide (internal standard) in acetonitrile. 25057.5 μL of phosphate buffer (pH 7.4) was taken into a 50 mL centrifuge tube, added with 812.5 μL of human liver microsome, and mixed well to obtain a liver microsome diluent with a protein concentration of 0.625 mg/mL. 25057.5 μL of phosphate buffer (pH 7.4) was taken into a 50 mL centrifuge tube, added with 812.5 μL of SD rat liver microsome, and mixed well to obtain a liver microsome diluent with a protein concentration of 0.625 mg/mL.
(§7) Incubation of the samples: the stock solutions of the corresponding compounds were respectively diluted to 0.25 mM with an aqueous solution containing 70% acetonitrile to obtain working solutions for later use. 398 μL of human liver microsome and rat liver microsome diluents were respectively taken and added to a 96-well incubation plate (N=2), added with 2 μL of 0.25 mM working solution respectively, and mixed well.
Determination of metabolic stability: 300 μL of pre-cooled stop solution was added to each well of a 96-well deep-well plate, and the plate was placed on ice as a stop plate. The 96-well incubation plate and the NADPH regeneration system were placed in a 37° C. water bath, shaken at 100 rpm, and pre-incubated for 5 minutes. 80 μL of incubation solution was taken out of each well of the incubation plate and added to the stop plate, mixed well, and supplemented with 20 μL of NADPH regeneration system solution to obtain the 0 min sample. Then 80 μL of NADPH regeneration system solution was added to each well of the incubation plate to initiate the reaction and start timing. The reaction concentration of the corresponding compound was 1 μM, and the protein concentration was 0.5 mg/mL. At 10, 30, and 90 minutes of reaction, 100 μL of the reaction solution was taken and added to the stop plate, and vortexed for 3 minutes to stop the reaction. The stop plate was centrifuged at 5000×g for 10 min at 4° C. 100 μL of supernatant was taken to a 96-well plate pre-added with 100 μL of distilled water, mixed well, and subjected to sample analysis by LC-MS/MS.
Data analysis: the peak areas of the corresponding compound and internal standard were detected through the LC-MS/MS system, and the ratio of the peak area of the compound to the internal standard was calculated. The natural logarithm of the remaining percentage of the compound was plotted against time to measure the slope and calculate t1/2 and CLint according to the following equations, where V/M is equal to 1/protein concentration.
The compounds of the present invention and the corresponding non-deuterated compounds were simultaneously tested for comparison and evaluated for the metabolic stability in human and rat liver microsomes. The non-deuterated compound Darolutamide was used as the control.

[2] = Metabolic stability evaluation, rat liver microsome; assay type: in vitro ADME; settings: SD, liver microsomes, pH 7.4, rat liver microsome 0.5 mg/mL, compound 1 μM, NADPH, 37° C.; for microsomal CLint at 1 μM: read-out: RLM CL; for half-life at 1 μM: read-out: RLM T1/2
Procedure: as §1, §2, §3, §4, §5, §6, §7
Determination of metabolic stability: 300 μL of pre-cooled stop solution was added to each well of a 96-well deep-well plate, and the plate was placed on ice as a stop plate. […]
Data analysis: the peak areas of the corresponding compound and internal standard were detected through the LC-MS/MS system, and the ratio of the peak area of the compound to the internal standard was calculated. […]
The compounds of the present invention and the corresponding non-deuterated compounds were simultaneously tested for comparison and evaluated for the metabolic stability in human and rat liver microsomes. […]

Structure (SMILES)	microsomal CLint at 1 μM [1]	half-life at 1 μM [1]	microsomal CLint at 1 μM [2]	half-life at 1 μM [2]
[2H]C(C)(O)c1cc(C(=O)N[C@@H](C([2H])([2H])[2H])C([2H])([2H])n2ccc(-c3ccc(C#N)c(Cl)c3)n2)n[nH]1 (stereo partly drawn) [Example 10, N—((S)-1-(3-(3-chloro-4-cyanophenyl)-1H-pyrazol-1-yl)prop-2-yl-1,1,3,3,3-d5)-5-(1-hydroxyethyl-1-d)-1H-pyrazole-3-carboxamide]	4.4 µL/min/mg	317 min	–	–
[2H]C([2H])([C@H](C)NC(=O)c1cc(C([2H])(O)C([2H])([2H])[2H])[nH]n1)n1ccc(-c2ccc(C#N)c(Cl)c2)n1 (stereo partly drawn) [Example 7, N—((S)-1-(3-(3-chloro-4-cyanophenyl)-1H-pyrazol-1-yl)prop-2-yl-1,1-d2)-5-(1-hydroxyethyl-1,2,2,2-d4)-1H-pyrazole-3-carboxamide]	6.9 µL/min/mg	202 min	7.1 µL/min/mg	195 min
[2H]C([2H])([C@H](C)NC(=O)c1cc(C(C)O)[nH]n1)n1ccc(-c2ccc(C#N)c(Cl)c2)n1 (stereo partly drawn) [Example 4, N—((S)-1-(3-(3-chloro-4-cyanophenyl)-1H-pyrazol-1-yl)prop-2-yl-1,1-d2)-5-(1-hydroxyethyl)-1H-pyrazole-3-carboxamide]	8.5 µL/min/mg	162 min	–	–
[2H]C([2H])([2H])C([2H])(O)c1cc(C(=O)N[C@@H](C)Cn2ccc(-c3ccc(C#N)c(Cl)c3)n2)n[nH]1 (stereo partly drawn) [Example 3, N—((S)-1-(3-(3-chloro-4-cyanophenyl)-1H-pyrazol-1-yl)prop-2-yl)-5-(1-hydroxylethyl-1,2,2,2-d4)-1H-pyrazole-3-carboxamide]	4 µL/min/mg	350 min	–	–
[2H][C@](C)(Cn1ccc(-c2ccc(C#N)c(Cl)c2)n1)NC(=O)c1cc(C(C)O)[nH]n1 (stereo partly drawn) [Example 8, N—((S)-1-(3-(3-chloro-4-cyanophenyl)-1H-pyrazol-1-yl)prop-2-yl-2-d)-5-(1-hydroxyethyl)-1H-pyrazole-3-carboxamide]	7.3 µL/min/mg	190 min	–	–
[2H]C(C)(O)c1cc(C(=O)N[C@@H](C)Cn2ccc(-c3ccc(C#N)c(Cl)c3)n2)n[nH]1 (stereo partly drawn) [Example 1, N—((S)-1-(3-(3-chloro-4-cyanophenyl)-1H-pyrazol-1-yl)prop-2-yl)-5-(1-hydroxylethyl-1-d)-1H-pyrazole-3-carboxamide]	6.2 µL/min/mg	222 min	–	–
[2H]C(C)(O)c1cc(C(=O)N[C@@H](C)C([2H])([2H])n2ccc(-c3ccc(C#N)c(Cl)c3)n2)n[nH]1 (stereo partly drawn) [Example 5, N—((S)-1-(3-(3-chloro-4-cyanophenyl)-1H-pyrazol-1-yl)prop-2-yl-1,1-d2)-5-(1-hydroxyethyl-1-d)-1H-pyrazole-3-carboxamide]	4.3 µL/min/mg	321 min	–	–
[2H]C([2H])([2H])C(O)c1cc(C(=O)N[C@@H](C)Cn2ccc(-c3ccc(C#N)c(Cl)c3)n2)n[nH]1 (stereo partly drawn) [Example 2, N—((S)-1-(3-(3-chloro-4-cyanophenyl)-1H-pyrazol-1-yl)prop-2-yl)-5-(1-hydroxylethyl-2,2,2-d3)-1H-pyrazole-3-carboxamide]	9.1 µL/min/mg	153 min	–	–
CC(O)c1cc(C(=O)N[C@@H](C)Cn2ccc(-c3ccc(C#N)c(Cl)c3)n2)[nH]n1 (stereo partly drawn) [Darolutamide, N—((S)-1-(3-(3-chloro-4-cyanophenyl)-1H-pyrazol-1-yl)-prop-2-yl)-5-(1-hydroxyethyl)-1H-pyrazole-3-carboxamide, reference compound]	8.5 µL/min/mg	163 min	12.2 µL/min/mg	114 min
[2H]C([2H])([2H])[C@H](NC(=O)c1cc(C(C)O)[nH]n1)C([2H])([2H])n1ccc(-c2ccc(C#N)c(Cl)c2)n1 (stereo partly drawn) [Example 9, N—((S)-1-(3-(3-chloro-4-cyanophenyl)-1H-pyrazol-1-yl)prop-2-yl-1,1,3,3,3-d5)-5-(1-hydroxyethyl)-1H-pyrazole-3-carboxamide]	8.1 µL/min/mg	171 min	–	–
[2H]C([2H])([2H])C(O)c1cc(C(=O)N[C@@H](C)C([2H])([2H])n2ccc(-c3ccc(C#N)c(Cl)c3)n2)n[nH]1 (stereo partly drawn) [Example 6, N—((S)-1-(3-(3-chloro-4-cyanophenyl)-1H-pyrazol-1-yl)prop-2-yl-1,1-d2)-5-(1-hydroxyethyl-2,2,2-d3)-1H-pyrazole-3-carboxamide]	6.4 µL/min/mg	217 min	–	–
